Consider 10 molecules from patent US11667602B2, “Compounds and their use” (AstraZeneca AB, priority 2020, dated 2023).

In brackets after ≈: the same amount, converted by molar mass. Some results are limits rather than exact numbers.

The nature of one data set: Solubility (Test F). To be noted: arithmetic mean if run multiple times. It counts as physicochemical. As to the method:
The assay was conducted according to the Solubility Assay described in pages 164-167 of Wernevik, J. et al., “A Fully Integrated Assay Panel for Early Drug Metabolism and Pharmacokinetics Profiling”, Assay and Drug Development Technologies, 2020, 18(4), 157-179. Data are reported in Table 36 as solubility ([…]. Where the assay was run multiple times for the same compound, the arithmetic mean is reported.

Data set [1] in a line: Rat Hepatocyte Stability (Test E). The class given is in vitro ADME. The following applies: rat, hepatocytes, geometric mean if run multiple times. The method, then:
Rat Hepatocyte Stability (Test E)
The assay was conducted according to the Rat Hepatocyte Stability Assay described in pages 170-174 of Wernevik, J. et al., “A Fully Integrated Assay Panel for Early Drug Metabolism and Pharmacokinetics Profiling”, Assay and Drug Development Technologies, 2020, 18(4), 157-179. Data are reported in Table 36 as mean Clint(μl/min/10^6 cells). Where the assay was run multiple times for the same compound, the geometric mean is reported.

Data set [2] is described as follows: Human Liver Microsomal Stability (Test C). The class given is in vitro ADME. To be noted: human, liver microsomes. As to the method: Human Liver Microsomal Stability (Test C)
The assay was conducted according to the Human Liver Microsome Stability Assay described in pages 170-174 of Wernevik, J. et al., “A Fully Integrated Assay Panel for Early Drug Metabolism and Pharmacokinetics Profiling”, Assay and Drug Development Technologies, 2020, 18(4), 157-179. Data are reported in Table 36 as CLint (μl/min/mg protein). Where the assay was run multiple times for the same compound, the arithmetic mean is reported.
In general terms: Microsomes from liver hold many membrane-bound enzymes, among them those of drug oxidation.

The target of a further data set is T1, human RXFP1 (Homo sapiens, UniProt Q9HBX9).
T1 sequence (Q9HBX9 1-757): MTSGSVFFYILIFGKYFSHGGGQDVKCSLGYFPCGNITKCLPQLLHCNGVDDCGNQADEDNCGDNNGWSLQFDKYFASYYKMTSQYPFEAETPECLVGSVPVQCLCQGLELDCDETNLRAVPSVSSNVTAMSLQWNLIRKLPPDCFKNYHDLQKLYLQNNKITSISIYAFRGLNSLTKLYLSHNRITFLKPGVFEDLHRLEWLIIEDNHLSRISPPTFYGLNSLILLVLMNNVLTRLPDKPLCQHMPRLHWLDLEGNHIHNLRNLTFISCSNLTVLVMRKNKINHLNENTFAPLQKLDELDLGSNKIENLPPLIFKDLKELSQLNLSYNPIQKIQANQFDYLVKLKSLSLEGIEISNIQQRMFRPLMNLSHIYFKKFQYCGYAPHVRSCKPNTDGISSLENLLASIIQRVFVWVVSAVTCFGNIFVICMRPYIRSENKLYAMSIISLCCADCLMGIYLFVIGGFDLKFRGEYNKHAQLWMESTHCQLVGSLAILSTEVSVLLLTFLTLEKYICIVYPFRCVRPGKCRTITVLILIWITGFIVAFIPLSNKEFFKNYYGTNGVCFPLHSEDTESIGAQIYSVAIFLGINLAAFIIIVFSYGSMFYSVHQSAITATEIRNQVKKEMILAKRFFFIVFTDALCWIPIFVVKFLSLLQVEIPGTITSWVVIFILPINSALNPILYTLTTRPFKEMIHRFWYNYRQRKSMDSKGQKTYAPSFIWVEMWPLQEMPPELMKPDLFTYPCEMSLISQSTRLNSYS
As to the kind of experiment: RXFP1 Hu cAMP (Test A). The following applies: RXFP1 Hu cAMP; for EC50: read-out: Test A EC50. The class given is cell-based. Set-up: expressed in transfected cells; host or cells: Jump-In T-REx CHO-K1 cells (ThermoFisher), induced with 10 ng/ml doxycycline for 24 h. Summed up:
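Competitive HTRF cAMP readout (2 h, room temperature) in CHO-K1 cells stably expressing human RXFP1, induced with 10 ng/ml doxycycline for 24 h; IBMX 0.5 mM final.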

A short description of data set [3]: Human Plasma Protein Binding (Test B). It counts as in vitro ADME. To be noted: fraction unbound (fu). As to the method:
Human Plasma Protein Binding (Test B)
The assay was conducted according to the Human Plasma Protein Binding Assay described in pages 167-170 of Wernevik, J. et al., “A Fully Integrated Assay Panel for Early Drug Metabolism and Pharmacokinetics Profiling”, Assay and Drug Development Technologies, 2020, 18(4), 157-179. Data are reported in Table 36 as fraction unbound (fu) (% free). Where the assay was run multiple times for the same compound, the arithmetic mean is reported.

In general, solubility refers to the concentration that dissolves in the medium under given conditions. A higher solubility goes with a readily soluble substance. In general, hepatocyte CLint refers to the capacity of the preparation to metabolise the compound, expressed as a volume cleared per time. Read a high hepatocyte CLint as rapid turnover. A word on the microsomal CLint: it is a measure of how fast metabolising enzymes remove a compound, apart from limits set by blood flow. One may read the EC50 as the concentration at which the effect is half-maximal.

Regarding `COc1cc(F)c(-c2ccc([C@@H]3C[C@H]3C(=O)O)nc2)cc1C(=O)N[C@@H]1[C@H]2CC[C@H](C2)[C@@H]1C(=O)Nc1cccc(S(=O)(=O)C(F)(F)F)c1` (single isomer, unassigned) [Example 261, (1R*,2R*)-2-(5-(2-Fluoro-4-methoxy-5-(((1S,2R,3S,4R)-3-((3-((trifluoromethyl)sulfonyl)phenyl)carbamoyl)bicyclo[2.2.1]heptan-2-yl)carbamoyl)phenyl)pyridin-2-yl)cyclopropane-1-carboxylic acid], the solubility in “Solubility (Test F)” is above 1000 µM. In data set [1], this molecule yielded a hepatocyte CLint of 84 µL/min/1e6 cells. Besides, the microsomal CLint in data set [2] came out at 57 µL/min/mg. On human RXFP1, the “Test A Sinf” value was determined as 107% and the EC50 was found to be 130 nM. For the same molecule, in data set [3], the “Test B Human Plasma Protein Binding (% free)” value stood at 0.89 % free.
With `COc1cc(F)c(O[C@H]2CC[C@@H](C(=O)O)CC2)cc1C(=O)N[C@@H]1[C@H]2CC[C@H](C2)[C@@H]1C(=O)NC(C)C` [Example 8, (1S,4s)-4-(2-Fluoro-5-(((1S,2R,3S,4R)-3-(isopropylcarbamoyl)bicyclo[2.2.1]heptan-2-yl)carbamoyl)-4-methoxyphenoxy)cyclohexane-1-carboxylic acid], in the data set “Solubility (Test F)”, the solubility amounted to 980 µM (≈ 481 µg/mL). Further, the hepatocyte CLint in data set [1] is 38 µL/min/1e6 cells. Besides, the microsomal CLint in data set [2] was 1.7 µL/min/mg. For the same molecule, the EC50 at human RXFP1 was above 50000 nM. Also, the “Test B Human Plasma Protein Binding (% free)” value in data set [3] amounted to 23 % free.
Molecule `COc1cc(F)c(O[C@H]2CC[C@@H](C(=O)O)CC2)cc1C(=O)N[C@@H]1[C@H]2CC[C@H](C2)[C@@H]1C(=O)NC1CCCCC1` [Example 9, (1S,4s)-4-(5-(((1S,2R,3S,4R)-3-(Cyclohexylcarbamoyl)bicyclo[2.2.1]heptan-2-yl)carbamoyl)-2-fluoro-4-methoxyphenoxy)cyclohexane-1-carboxylic acid] showed a solubility in the data set “Solubility (Test F)” of 27 µM (≈ 14.3 µg/mL). In data set [1], this molecule displayed a hepatocyte CLint of 67 µL/min/1e6 cells. The molecule further had a microsomal CLint in data set [2] of 9.2 µL/min/mg. On human RXFP1, the “Test A Sinf” value is recorded as 100% and the EC50 is above 7300 nM. Further, the “Test B Human Plasma Protein Binding (% free)” value in data set [3] is given as 11 % free.
As to `COc1cc(F)c(O[C@H]2CC[C@@H](C(=O)O)CC2)cc1C(=O)N[C@@H]1[C@H]2CC[C@H](C2)[C@@H]1C(=O)Nc1cccc(CF)c1` [Example 11, (1S,4s)-4-(2-Fluoro-5-(((1S,2R,3S,4R)-3-((3-(fluoromethyl)phenyl)carbamoyl)bicyclo[2.2.1]heptan-2-yl)carbamoyl)-4-methoxyphenoxy)cyclohexane-1-carboxylic acid], in “Solubility (Test F)”, the solubility was above 1000 µM. For the same molecule, in data set [1], the hepatocyte CLint was above 300 µL/min/1e6 cells. The microsomal CLint in data set [2] came out at 36 µL/min/mg. Besides, the “Test A Sinf” value on human RXFP1 is 104%. The “Test B Human Plasma Protein Binding (% free)” value in data set [3] is recorded as 3.3 % free.
For the molecule `COc1cc(F)c(O[C@H]2CC[C@@H](C(=O)O)CC2)cc1C(=O)N[C@@H]1[C@H]2CC[C@H](C2)[C@@H]1C(=O)Nc1ccnc(C(F)(F)F)c1` [Example 12, (1S,4s)-4-(2-Fluoro-4-methoxy-5-(((1S,2R,3S,4R)-3-((2-(trifluoromethyl)pyridin-4-yl)carbamoyl)bicyclo[2.2.1]heptan-2-yl)carbamoyl)phenoxy)cyclohexane-1-carboxylic acid], the solubility in “Solubility (Test F)” amounted to 850 µM (≈ 505 µg/mL). The molecule also displayed a hepatocyte CLint in data set [1] of 64 µL/min/1e6 cells. The molecule also yielded a microsomal CLint in data set [2] of 23 µL/min/mg. Moreover, on human RXFP1, the “Test A Sinf” value came to 107% and the EC50 was 410 nM. The “Test B Human Plasma Protein Binding (% free)” value in data set [3] was determined as 2.7 % free.
As to `COc1cc(F)c(O[C@H]2CC[C@@H](C(=O)O)CC2)cc1C(=O)N[C@@H]1[C@H]2CC[C@H](C2)[C@@H]1C(=O)Nc1ccc(C(F)(F)F)cn1` [Example 13, (1S,4s)-4-(2-Fluoro-4-methoxy-5-(((1S,2R,3S,4R)-3-((5-(trifluoromethyl)pyridin-2-yl)carbamoyl)bicyclo[2.2.1]heptan-2-yl)carbamoyl)phenoxy)cyclohexane-1-carboxylic acid], the concentration in solution in the data set “Solubility (Test F)” (solubility) was 520 µM (≈ 309 µg/mL). Besides, the hepatocyte CLint in data set [1] turned out to be 10 µL/min/1e6 cells. The molecule also displayed a microsomal CLint in data set [2] of 24 µL/min/mg. Further, at human RXFP1, the “Test A Sinf” value is listed as 115% and the EC50 came to 6300 nM. The “Test B Human Plasma Protein Binding (% free)” value in data set [3] is given as 3.1 % free.
Regarding `COc1cc(F)c(O[C@H]2CC[C@@H](C(=O)O)CC2)cc1C(=O)N[C@@H]1[C@H]2CC[C@H](C2)[C@@H]1C(=O)Nc1cc(C(F)(F)F)ccn1` [Example 14, (1S,4s)-4-(2-Fluoro-4-methoxy-5-(((1S,2R,3S,4R)-3-((4-(trifluoromethyl)pyridin-2-yl)carbamoyl)bicyclo[2.2.1]heptan-2-yl)carbamoyl)phenoxy)cyclohexane-1-carboxylic acid], in “Solubility (Test F)”, the solubility stood at 770 µM (≈ 457 µg/mL). The molecule also had a hepatocyte CLint in data set [1] of 27 µL/min/1e6 cells. The molecule further registered a microsomal CLint in data set [2] of 18 µL/min/mg. In addition, on human RXFP1, the “Test A Sinf” value is listed as 83% and the EC50 is 510 nM. Besides, the “Test B Human Plasma Protein Binding (% free)” value in data set [3] was determined as 1.8 % free.
As to `COc1cc(F)c(O[C@H]2CC[C@@H](C(=O)O)CC2)cc1C(=O)N[C@@H]1[C@H]2CC[C@H](C2)[C@@H]1C(=O)Nc1ccc(S(=O)(=O)C(F)(F)F)cc1` [Example 15, (1S,4s)-4-(2-Fluoro-4-methoxy-5-(((1S,2R,3S,4R)-3-((4-((trifluoromethyl)sulfonyl)phenyl)carbamoyl)bicyclo[2.2.1]heptan-2-yl)carbamoyl)phenoxy)cyclohexane-1-carboxylic acid], in “Solubility (Test F)”, the solubility is 390 µM (≈ 256 µg/mL). Further, in data set [1], the hepatocyte CLint was 13 µL/min/1e6 cells. The microsomal CLint in data set [2] turned out to be 14 µL/min/mg. Besides, on human RXFP1, the “Test A Sinf” value came out at 94% and the EC50 amounted to 420 nM. For the same molecule, the “Test B Human Plasma Protein Binding (% free)” value in data set [3] is given as 1.3 % free.
In the case of `COc1cc(F)c(O[C@H]2CC[C@@H](C(=O)O)CC2)cc1C(=O)N[C@@H]1[C@H]2CC[C@H](C2)[C@@H]1C(=O)Nc1c(F)c(F)c(F)c(F)c1F` [Example 16, (1S,4s)-4-(2-Fluoro-4-methoxy-5-(((1S,2R,3S,4R)-3-((perfluorophenyl)carbamoyl)bicyclo[2.2.1]heptan-2-yl)carbamoyl)phenoxy)cyclohexane-1-carboxylic acid], the solubility in “Solubility (Test F)” worked out at 330 µM (≈ 203 µg/mL). In data set [1], the hepatocyte CLint amounted to 49 µL/min/1e6 cells. The molecule further gave a microsomal CLint in data set [2] of 9.3 µL/min/mg. Further, on human RXFP1, the “Test A Sinf” value is given as 93% and the EC50 was found to be 330 nM. Also, in data set [3], the “Test B Human Plasma Protein Binding (% free)” value was 2.2 % free.
Molecule `COc1cc(F)c(O[C@H]2CC[C@@H](C(=O)O)CC2)cc1C(=O)N[C@@H]1[C@H]2CC[C@H](C2)[C@@H]1C(=O)Nc1cc(F)cc(S(F)(F)(F)(F)F)c1` [Example 17, (1S,4s)-4-(2-Fluoro-5-(((1S,2R,3S,4R)-3-((3-fluoro-5-(pentafluoro-6-sulfaneyl)phenyl)carbamoyl)bicyclo[2.2.1]heptan-2-yl)carbamoyl)-4-methoxyphenoxy)cyclohexane-1-carboxylic acid] registered a solubility in “Solubility (Test F)” of 150 µM (≈ 100 µg/mL). The molecule further gave a hepatocyte CLint in data set [1] of 11 µL/min/1e6 cells. This molecule also registered a microsomal CLint in data set [2] of 20 µL/min/mg. Also, at human RXFP1, the “Test A Sinf” value amounted to 110% and the EC50 was 48 nM. Also, in data set [3], the “Test B Human Plasma Protein Binding (% free)” value is listed as below 0.21 % free.
